Reference: patent US20220218693A1, “IMMUNE CHECKPOINT INHIBITOR COMBINATION THERAPY USING QUINOLINE CARBOXAMIDE DERIVATIVE” (KABUSHIKI KAISHA YAKULT HONSHA, priority 2019, published 2022)

How the values were obtained:
Format in all cases: in vivo, BALB/c mice
[1] = system: mouse bowel cancer cell line CT26 cells; assay: Antitumor effect of combined administration in CT26 tumor-bearing mice (Example 2); conditions: STX-1159 40 mg/kg p.o. days 6, 8 and 10 + PD-1 Ab 50 μg/mouse i.p. days 8, 10 and 13; compared with either agent alone; FIG. 2
Source text: (§1) Six-week-old female BALB/c mice were purchased from Japan SLC, Inc., conditioned and raised for about a week in University of Shizuoka, Experimental Animal Center, and then used for experiments.
(§2) Hair on a back part and ventral parts of the BALB/c mouse was shaved, and 1×10^6 mouse bowel cancer cell line CT26 cells (ATCCs) were subcutaneously transplanted in each of the left and right ventral parts (day 0). Six days after the transplantation, the longer diameter (mm) and the shorter diameter (mm) of the tumor were measured using a digital caliper (A&D Company, Limited), and a tumor volume was calculated. The expression for calculation of the tumor volume was as follows: tumor volume (mm^3)=0.5×(longer diameter mm)×(shorter diameter mm)^2. An average of the tumor volumes on the left and the right was calculated for each individual, and on the basis of the thus-obtained value, the mice were divided into groups in such a manner that the variations in tumor volume between individuals in the groups were the same.
STX-1159 was orally administered at 40 mg/kg three times every other day. […]
The evaluation item was an individual tumor volume. From day 6, the longer diameter (mm) and the shorter diameter (mm) of the tumor were measured at an interval of one to four days using a digital caliper. […]

[2] = system: mouse bowel cancer cell line CT26 cells; assay: Antitumor effect of combined administration in CT26 tumor-bearing mice (Example 1); conditions: FIG. 1
Source text: Six-week-old female BALB/c mice (72 mice) were purchased from Japan SLC, Inc., conditioned and raised for 5 days in University of Shizuoka, Experimental Animal Center, and then used for experiments.
Hair on a back part and ventral parts of the BALB/c mouse was shaved, and 1×10^6 mouse bowel cancer cell line CT26 cells (ATCCs) were subcutaneously transplanted in each of the left and right ventral parts (day 0). Five days after the transplantation, the longer diameter (mm) and the shorter diameter (mm) of the tumor were measured using a digital caliper (A&D Company, Limited), and a tumor volume was calculated. […]
An average of the tumor volumes on the left and the right was calculated for each individual, and on the basis of the thus-obtained value, the mice were divided into eight groups (nine mice in each group) in such a manner that the variations in tumor volume between individuals in the groups were the same. […]
The evaluation item was an average of the tumor volumes on the left and the right in each individual. From day 5, the longer diameter (mm) and the shorter diameter (mm) of the tumor were measured at an interval of one day or two days using a digital caliper. […] An average of the tumor volumes on the left and the right was calculated for each individual. […]

[3] = system: mouse fibrosarcoma CMS5a cells; assay: Antitumor effect of combined administration in CMS5a tumor-bearing mice (Example 3); conditions: STX-1159 40 mg/kg p.o. days 5 to 9 + PD-1 Ab 200 μg/mouse i.p. days 12, 14 and 16; t-test versus control; FIG. 3
Source text: as §1
as §2, with “fibrosarcoma CMS5a” for “bowel cancer cell line CT26”, “cells” for “cells (ATCCs)”, “Five” for “Six”
STX-1159 was orally administered at 40 mg/kg continuously for five days. […]
The evaluation item was an individual tumor volume. From day 5, the longer diameter (mm) and the shorter diameter (mm) of the tumor were measured at an interval of one or two days using a digital caliper. […]

O=C(Nc1nnc(-c2ccco2)o1)c1cc(-c2ccccc2)nc2ccc(OC(F)(F)F)cc12 [STX-1159, N-[5-(2-furyl)-1,3,4-oxadiazol-2-yl]-2-phenyl-6-trifluoromethoxy-4-quinoline carboxamide]
antitumor effect (tumor volume) [1]: much higher antitumor effect
antitumor effect (tumor volume) ([2]; STX-1159 40 mg/kg p.o. days 5 to 9 in advance + PD-1 Ab 50 μg/mouse i.p. days 12, 14 and 16, compared with simultaneous and later administration groups): much higher antitumor effect
antitumor effect (tumor volume) ([2]; simultaneous: STX-1159 40 mg/kg p.o. days 12 to 16 + PD-1 Ab 50 μg/mouse i.p. days 12, 14 and 16, compared with each single-agent group): antitumor effect was lower
tumor shrinkage (tumor volume) versus control group [3]: showed more significant tumor shrinkage over the control group
